The values that follow come from patent US5416191A, “Bradykinin antagonists” (Cortech, Inc., priority 1993, dated 1995).

Where two headings read alike, the source gives them in different places. Peptide text beside a SMILES is read from it.

In assay [1] the target is T1, bradykinin receptor of the B2 class (guinea-pig ileum) (Cavia porcellus, UniProt O70526).
T1 sequence (O70526 1-372): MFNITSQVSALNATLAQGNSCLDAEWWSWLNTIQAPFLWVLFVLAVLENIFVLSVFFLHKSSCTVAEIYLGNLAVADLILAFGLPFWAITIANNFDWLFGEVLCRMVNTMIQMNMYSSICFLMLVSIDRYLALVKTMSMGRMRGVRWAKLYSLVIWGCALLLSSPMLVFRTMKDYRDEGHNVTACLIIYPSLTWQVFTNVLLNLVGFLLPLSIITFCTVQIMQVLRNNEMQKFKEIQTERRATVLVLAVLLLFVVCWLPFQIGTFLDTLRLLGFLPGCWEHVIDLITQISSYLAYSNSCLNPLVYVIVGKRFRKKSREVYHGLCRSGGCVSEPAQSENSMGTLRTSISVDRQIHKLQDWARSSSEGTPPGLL

Assay [2] deals with T2, bradykinin receptor of the B2 class (rat uterus) (Rattus norvegicus, UniProt P25023).
T2 construct: concentration effect curves to bradykinin (BK) on rat uterus in vitro; from tissue; host or cells: rat uterus
T2 sequence (P25023 1-396): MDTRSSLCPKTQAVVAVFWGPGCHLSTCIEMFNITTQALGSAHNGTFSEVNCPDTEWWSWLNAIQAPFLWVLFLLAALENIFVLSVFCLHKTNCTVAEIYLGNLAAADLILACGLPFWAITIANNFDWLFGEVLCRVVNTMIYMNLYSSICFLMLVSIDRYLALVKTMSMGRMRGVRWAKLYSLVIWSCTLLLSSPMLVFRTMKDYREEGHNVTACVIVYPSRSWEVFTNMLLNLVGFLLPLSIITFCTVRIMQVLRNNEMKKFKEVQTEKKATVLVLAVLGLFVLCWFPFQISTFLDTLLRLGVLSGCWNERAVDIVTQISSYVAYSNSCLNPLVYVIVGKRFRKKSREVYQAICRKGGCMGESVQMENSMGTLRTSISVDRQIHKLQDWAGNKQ
As to the kind of experiment: Rat uterus (RU) in vitro, antagonism of bradykinin. Conditions: for RU % REC: recovery after wash; for pA2 MONOMER: P.A. = Partial Agonist. In short, it runs like this:
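Isolated rat uterus; bradykinin antagonism expressed as pA2, the negative log molar antagonist concentration that halves agonist potency. After the highest antagonist concentration, tissues were washed extensively and percent recovery was recorded.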

Assay [3] has as its target T3, bradykinin receptor of the B2 class (rabbit jugular vein) (Oryctolagus cuniculus, UniProt Q28642).
T3 construct: from tissue; host or cells: rabbit jugular vein
T3 sequence (Q28642 1-367): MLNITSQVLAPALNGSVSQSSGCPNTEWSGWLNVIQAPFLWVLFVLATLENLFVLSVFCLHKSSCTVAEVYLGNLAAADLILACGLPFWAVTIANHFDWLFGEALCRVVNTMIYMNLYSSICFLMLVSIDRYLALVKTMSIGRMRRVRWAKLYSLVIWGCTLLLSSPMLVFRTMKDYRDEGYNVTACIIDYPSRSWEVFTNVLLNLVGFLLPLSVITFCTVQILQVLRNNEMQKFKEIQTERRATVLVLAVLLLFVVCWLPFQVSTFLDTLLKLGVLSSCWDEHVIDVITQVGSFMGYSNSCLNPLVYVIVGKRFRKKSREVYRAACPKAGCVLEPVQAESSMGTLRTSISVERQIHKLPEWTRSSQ
As to the kind of experiment: Rabbit jugular vein (RJV) in vitro, antagonism of bradykinin. Particulars: for RJV % REC: recovery after wash. Here is the method: Thus in vitro studies were performed on standard assay systems, namely, guinea-pig ileum (GPI), rat uterus (RU) and rabbit jugular vein (RJV). […] The potency of each compound was assessed as a pA2 value according to the method of Arunlakshana & Schild, Br. J. Pharmacol. Chemother., 14:48-58 (1959). The PA2 can be defined as the negative logarithm of the molar concentration of the antagonist in the presence of which the potency of the agonist is reduced two-fold, i.e. twice the amount of agonist is required to produce a given response in the presence of, than in the absence of, the antagonist. A high potency of antagonism is indicated by a high PA2 value, i.e., a low concentration of antagonist is effective.
The percentage recovery (% Rec) was also determined for compounds with respect to each assay. Percentage recovery is a measure of the duration of action, the lower the percentage recovery value, the greater the duration of action of the compound.

Assay [4] has as its target T1, bradykinin receptor of the B2 class (guinea-pig ileum). Particulars: for GPI % REC: recovery after wash, lower = longer duration; for pA2 GUINEA PIG ILEUM: Table B, Cys position scan, monomers and BMH dimers.
For assay [5], the system named is bradykinin-induced vascular permeability. Briefly: Rabbit skin vascular permeability (Evans Blue, intradermal bradykinin). It counts as in vivo. The method, then: In these experiments, two protocols were used. The first protocol used the classical assay in which bradykinin was injected intradermally either alone or in combination with the compound under investigation following intravenous administration of Evans Blue dye. Thirty minutes after intradermal injection of bradykinin with and without the compound, the animal was killed, its skin removed and the area of "blueing" (i.e., vascular permeability or edema) measured.
The second protocol involved pre-injecting the test compound either 15 or 30 minutes before injecting bradykinin in the same site. The results are shown in FIGS. 2B and 2C, respectively.

Assay [6] relates to bradykinin-induced hypotension. As to the kind of experiment: Bradykinin-induced hypotension in the anesthetized rat. It counts as in vivo. Conditions: intravenous infusion 25 μg kg^-1 min^-1; bradykinin 4×10^-9 moles; FIG. 3.
Setting [7] is: Table A, read-out: RJV pA2 (converted).

For `CC(C)C[C@H](NC(=O)[C@@H](Cc1ccccc1)NC(=O)[C@H](CO)NC(=O)[C@H](Cc1ccccc1)NC(=O)CNC(=O)[C@@H]1C[C@@H](O)CN1C(=O)[C@@H]1CCCN1C(=O)[C@H](CCCNC(=N)N)NC(=O)[C@H](N)CCCNC(=N)N)C(=O)N[C@@H](CCCNC(=N)N)C(=O)O` [CP-0088, dARG^0 -Arg^1 -Pro^2 -Hyp^3 -Gly^4 -Phe^5 -Ser^6 -(d)Phe^7 -Leu^8 -Arg^9, reference compound] (HELM PEPTIDE1{[dR].R.P.[Hyp].G.F.S.[dF].L.R}$$$$V2.0), the Kb in assay [1] is 251 nM; in assay [2] (Table A, read-out: RU pA2 (converted)), 39.8 nM; in assay [3] (setting [7]) it was 3.16 nM. In addition, the “RU % REC” value in assay [2] (Table A) was 100%. For the same compound, in assay [2] (Table C, rat uterus), the “% REC MONOMER” value is 100%. In addition, in assay [2] (Table C, rat uterus), the “pA2 MONOMER” value was determined as 7.4. In assay [2] (Table F), the “RAT UTERUS pA2” value was determined as 7.4. In assay [2] (Table F, rat uterus), the “% RECOVERY” value worked out at 100%. In addition, the “RJV % REC” value in assay [3] (Table A) stood at 90%. Moreover, the “GPI % REC” value in assay [4] (Table A) came out at 100%.
`CC(C)C[C@H](NC(=O)[C@@H](Cc1ccccc1)NC(=O)[C@H](CS)NC(=O)[C@H](Cc1ccccc1)NC(=O)CNC(=O)[C@@H]1C[C@@H](O)CN1C(=O)[C@@H]1CCCN1C(=O)[C@H](CCCNC(=N)N)NC(=O)[C@H](N)CCCNC(=N)N)C(=O)N[C@@H](CCCNC(=N)N)C(=O)O` [CP-0126] (HELM PEPTIDE1{[dR].R.P.[Hyp].G.F.C.[dF].L.R}$$$$V2.0): the “Inhibition of bradykinin-induced vascular permeability, co-injected” value in assay [5] (intradermal, injected in combination with bradykinin, FIG. 2A) is on record as “more potent than CP-0127”. Moreover, the “Inhibition of bradykinin-induced vascular permeability, pre-injected” value in assay [5] (pre-injected 15 or 30 minutes before bradykinin in the same site, FIGS. 2B/2C) was “significantly less effective”. For the same compound, the Kb was 501 nM in assay [1]; 398 nM in assay [1] (GPI pA2, Table A); 1.58 nM in assay [3]. For the same compound, the “Recovery of bradykinin concentration effect curve after washing” value in assay [2] (rat uterus, after highest antagonist concentration, FIGS. 1A/1B) is “almost returns to that seen in the control”. Besides, the “RJV % REC” value in assay [3] (Table A) came out at 60%. Moreover, the “GPI pA2” value in assay [4] is reported as “≈ 6.3”. Further, the “Inhibition of hypotensive response to bradykinin” value in assay [6] was “almost totally ineffective”.
Turning to `CC(C)C[C@H](NC(=O)[C@@H](Cc1ccccc1)NC(=O)[C@H](CSC1CC(=O)N(CCCCCCN2C(=O)CC(SC[C@H](NC(=O)[C@H](Cc3ccccc3)NC(=O)CNC(=O)[C@@H]3C[C@@H](O)CN3C(=O)[C@@H]3CCCN3C(=O)[C@H](CCCNC(=N)N)NC(=O)[C@H](N)CCCNC(=N)N)C(=O)N[C@H](Cc3ccccc3)C(=O)N[C@@H](CC(C)C)C(=O)N[C@@H](CCCNC(=N)N)C(=O)O)C2=O)C1=O)NC(=O)[C@H](Cc1ccccc1)NC(=O)CNC(=O)[C@@H]1C[C@@H](O)CN1C(=O)[C@@H]1CCCN1C(=O)[C@H](CCCNC(=N)N)NC(=O)[C@H](N)CCCNC(=N)N)C(=O)N[C@@H](CCCNC(=N)N)C(=O)O` (some centres unmarked) [CP-0127] (HELM PEPTIDE1{[dR].R.P.[Hyp].G.F.C.[dF].L.R}|PEPTIDE2{[dR].R.P.[Hyp].G.F.C.[dF].L.R}|CHEM1{[O=C1CC([*:1])C(=O)N1CCCCCCN1C(=O)CC([*:2])C1=O]}$PEPTIDE1,CHEM1,7:R3-1:R1|PEPTIDE2,CHEM1,7:R3-1:R2$$$V2.0), in assay [1] (pA2 GUINEA PIG ILEUM, Table B, Cys position scan, monomers and BMH dimers), the Kb was around 20 nM. Further, the “RU % REC” value in assay [2] (Table A) is 50%. Also, in assay [2] (Table C, rat uterus), the “% REC DIMER” value is 50% and the “pA2 DIMER” value is listed as 8.8. Further, in assay [2] (Table D, 40 min), the “% REC (40 MIN)” value worked out at 50%. In addition, in assay [2] (Table D, effect of linker length), the “pA2 (UTERUS)” value was determined as 8.8. In assay [2] (Table E), the “RAT UTERUS % RECOVERED” value is 50% and the “RAT UTERUS pA2” value is reported as 8.8. The “% RECOVERY” value in assay [2] (Table F, rat uterus) was 50%. Moreover, in assay [3] (setting [7]), the Kb is 0.0316 nM. Besides, the “RJV % REC” value in assay [3] (Table A) is recorded as 10%. Besides, in assay [4] (Table A), the “GPI pA2” value was 7.7 and the “GPI % REC” value is given as 100%.
Consider `CC(C)C[C@H](NC(=O)[C@@H](Cc1ccccc1)NC(=O)[C@H](CO)NC(=O)[C@H](Cc1ccccc1)NC(=O)CNC(=O)[C@@H]1C[C@@H](O)CN1C(=O)[C@@H]1CCCN1C(=O)[C@H](CCCNC(=N)N)NC(=O)[C@H](N)CCCNC(=N)N)C(=O)N[C@@H](CSC1CC(=O)N(CCCCCCN2C(=O)CC(SC[C@H](NC(=O)[C@H](CC(C)C)NC(=O)[C@@H](Cc3ccccc3)NC(=O)[C@H](CO)NC(=O)[C@H](Cc3ccccc3)NC(=O)CNC(=O)[C@@H]3C[C@@H](O)CN3C(=O)[C@@H]3CCCN3C(=O)[C@H](CCCNC(=N)N)NC(=O)[C@H](N)CCCNC(=N)N)C(=O)O)C2=O)C1=O)C(=O)O` (some centres unmarked) [CP-0160] (HELM PEPTIDE1{[dR].R.P.[Hyp].G.F.S.[dF].L.C}|PEPTIDE2{[dR].R.P.[Hyp].G.F.S.[dF].L.C}|CHEM1{[O=C1CC([*:1])C(=O)N1CCCCCCN1C(=O)CC([*:2])C1=O]}$PEPTIDE1,CHEM1,10:R3-1:R1|PEPTIDE2,CHEM1,10:R3-1:R2$$$V2.0), for which, in assay [2] (Table C, rat uterus), the “pA2 DIMER” value is recorded as “Inactive”. In addition, in assay [4], the “pA2 GUINEA PIG ILEUM” value was “Inactive”.
With `CC(C)C[C@H](NC(=O)[C@@H](Cc1ccccc1)NC(=O)[C@H](CO)NC(=O)[C@H](Cc1ccccc1)NC(=O)[C@@H](CS)NC(=O)[C@@H]1C[C@@H](O)CN1C(=O)[C@@H]1CCCN1C(=O)[C@H](CCCNC(=N)N)NC(=O)[C@H](N)CCCNC(=N)N)C(=O)N[C@@H](CCCNC(=N)N)C(=O)O` [CP-0173] (HELM PEPTIDE1{[dR].R.P.[Hyp].[dC].F.S.[dF].L.R}$$$$V2.0), the “pA2 MONOMER” value in assay [2] (Table C, rat uterus) is given as “Inactive”. Further, the “pA2 GUINEA PIG ILEUM” value in assay [4] is “Inactive”.
Regarding `CC(C)C[C@H](NC(=O)[C@@H](Cc1ccccc1)NC(=O)[C@H](CO)NC(=O)[C@H](Cc1ccccc1)NC(=O)[C@@H](CSC1CC(=O)N(CCCCCCN2C(=O)CC(SC[C@@H](NC(=O)[C@@H]3C[C@@H](O)CN3C(=O)[C@@H]3CCCN3C(=O)[C@H](CCCNC(=N)N)NC(=O)[C@H](N)CCCNC(=N)N)C(=O)N[C@@H](Cc3ccccc3)C(=O)N[C@@H](CO)C(=O)N[C@H](Cc3ccccc3)C(=O)N[C@@H](CC(C)C)C(=O)N[C@@H](CCCNC(=N)N)C(=O)O)C2=O)C1=O)NC(=O)[C@@H]1C[C@@H](O)CN1C(=O)[C@@H]1CCCN1C(=O)[C@H](CCCNC(=N)N)NC(=O)[C@H](N)CCCNC(=N)N)C(=O)N[C@@H](CCCNC(=N)N)C(=O)O` (some centres unmarked) [CP-0203] (HELM PEPTIDE1{[dR].R.P.[Hyp].[dC].F.S.[dF].L.R}|PEPTIDE2{[dR].R.P.[Hyp].[dC].F.S.[dF].L.R}|CHEM1{[O=C1CC([*:1])C(=O)N1CCCCCCN1C(=O)CC([*:2])C1=O]}$PEPTIDE1,CHEM1,5:R3-1:R1|PEPTIDE2,CHEM1,5:R3-1:R2$$$V2.0), in assay [2] (Table C, rat uterus), the “pA2 DIMER” value is reported as “Inactive”. Moreover, the “pA2 GUINEA PIG ILEUM” value in assay [4] was “Inactive”.
